Test results reported in article PMC10384936, “Identification and Biological Characterization of the Pyrazolo[3,4-d]pyrimidine Derivative SI388 Active as Src Inhibitor” (Pharmaceuticals, 2023).

Columns and labels:
[1] = molecular target: Bcr-Abl; parameters: method as in PMID 23746084, PMID 28650650, PMID 25469771, PMID 21443205, PMID 17929792; settings: in-house lead compounds, Figure 1; cited from earlier work
[2] = tested on: osteosarcoma; parameters: method as in PMID 17929792; settings: cited from earlier work
[3] = molecular target: T1, Abl (Homo sapiens, UniProt P00519); assay: Abl enzymatic assay (ADP-Glo kinase assay); format: biochemical; settings: for Ki: mean of at least three experiments, 30 μM ATP, read-out: Bcr-Abl Ki
T1 construct: purchased Merck-Millipore
T1 sequence (P00519 whole entry, species assumed): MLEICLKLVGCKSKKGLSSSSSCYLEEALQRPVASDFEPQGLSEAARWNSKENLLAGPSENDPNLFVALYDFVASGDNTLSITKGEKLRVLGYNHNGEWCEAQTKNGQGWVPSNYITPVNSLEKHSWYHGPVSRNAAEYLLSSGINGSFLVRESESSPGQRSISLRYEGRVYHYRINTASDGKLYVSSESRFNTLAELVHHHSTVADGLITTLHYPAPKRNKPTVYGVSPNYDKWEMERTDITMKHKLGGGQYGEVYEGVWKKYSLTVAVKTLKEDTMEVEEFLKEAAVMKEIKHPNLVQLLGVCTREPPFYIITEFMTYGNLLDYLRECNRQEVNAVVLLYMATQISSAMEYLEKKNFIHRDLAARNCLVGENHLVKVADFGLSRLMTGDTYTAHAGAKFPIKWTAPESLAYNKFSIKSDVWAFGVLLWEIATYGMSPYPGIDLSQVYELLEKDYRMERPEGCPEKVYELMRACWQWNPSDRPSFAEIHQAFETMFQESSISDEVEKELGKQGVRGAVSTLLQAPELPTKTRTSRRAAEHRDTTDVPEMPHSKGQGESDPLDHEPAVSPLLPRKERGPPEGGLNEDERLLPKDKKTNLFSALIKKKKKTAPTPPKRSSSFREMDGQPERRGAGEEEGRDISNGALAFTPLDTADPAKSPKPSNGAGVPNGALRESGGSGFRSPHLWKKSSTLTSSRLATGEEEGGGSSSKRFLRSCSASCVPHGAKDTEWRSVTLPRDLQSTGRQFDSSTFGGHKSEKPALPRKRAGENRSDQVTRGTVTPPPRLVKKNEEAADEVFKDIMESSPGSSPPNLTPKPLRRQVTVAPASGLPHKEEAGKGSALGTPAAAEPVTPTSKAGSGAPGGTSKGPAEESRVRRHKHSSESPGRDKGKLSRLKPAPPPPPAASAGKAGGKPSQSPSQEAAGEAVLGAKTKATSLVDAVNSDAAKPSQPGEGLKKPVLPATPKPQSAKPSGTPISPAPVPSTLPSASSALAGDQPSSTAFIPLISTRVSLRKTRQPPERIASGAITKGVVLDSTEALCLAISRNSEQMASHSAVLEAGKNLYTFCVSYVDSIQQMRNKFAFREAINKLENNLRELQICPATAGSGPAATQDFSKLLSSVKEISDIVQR
Method: (§1) Src, Fyn, and Abl were purchased from Merck-Millipore. Reactions were performed according to the manufacturer’s instructions with minor modifications. All substrates were used at least at twice the concentration of apparent Km. In detail: Src reactions were performed using 500 μM Src-peptide (KVEKIGEGTYGVVYK), 100 μM ATP, and 0.00087% NP-40; Fyn reactions were performed using 360 μM Src-peptide (KVEKIGEGTYGVVYK), 200 μM ATP, and 0.0026% NP-40; Abl reactions were performed using 50 μM abltide (EAIYAAPFAKKK), 30 μM ATP, and 0.00087% NP-40. All reactions were performed using 10–50 ng of enzyme and 10% DMSO in 10 μL of kinase buffer (8 mM MOPS-NaOH pH7.0, 0.2 mM EDTA, 10 mM MgAc) at 30 °C for 10 min.
(§2) To avoid peptide adsorbing to the plastic surface, protein low-binding tubes were used. ADP-Glo kinase assay (Promega) was then used to detect kinase activity according to the manufacturer’s instructions with minor modifications. In detail, reactions were transferred to white 384 well-plates and stopped by adding 10 µL of ADP-Glo reagent (Promega) for 50 min at room temperature. A total of 20 μL of detection reagent (Promega) was then added for 30 min and the reaction read using a GloMax Discover microplate reader (Promega). Data were plotted using GraphPad Prism 5.0. IC50 values were obtained according to Equation (1):v = V/{1 + (I/IC50)} (1) where v is the measured reaction velocity, V is the apparent maximal velocity in the absence of inhibitor, I is the inhibitor concentration, and IC50 is the 50% inhibitory dose. Compounds tested were assumed to act as fully ATP-competitive inhibitors. Therefore, Ki values were calculated according to Equation (2):Ki = IC50/(1+ […]) (2) where Ki is the affinity of the inhibitor to the enzyme, S is the ATP concentration, and Km is the affinity of ATP calculated according to the Michaelis–Menten equation.

[4] = molecular target: T2, Src (Homo sapiens, UniProt P12931); assay: Src enzymatic assay (ADP-Glo kinase assay); format: biochemical; settings: for Ki: mean of at least three experiments, 100 μM ATP
T2 construct: purchased Merck-Millipore
T2 sequence (P12931 whole entry, species assumed): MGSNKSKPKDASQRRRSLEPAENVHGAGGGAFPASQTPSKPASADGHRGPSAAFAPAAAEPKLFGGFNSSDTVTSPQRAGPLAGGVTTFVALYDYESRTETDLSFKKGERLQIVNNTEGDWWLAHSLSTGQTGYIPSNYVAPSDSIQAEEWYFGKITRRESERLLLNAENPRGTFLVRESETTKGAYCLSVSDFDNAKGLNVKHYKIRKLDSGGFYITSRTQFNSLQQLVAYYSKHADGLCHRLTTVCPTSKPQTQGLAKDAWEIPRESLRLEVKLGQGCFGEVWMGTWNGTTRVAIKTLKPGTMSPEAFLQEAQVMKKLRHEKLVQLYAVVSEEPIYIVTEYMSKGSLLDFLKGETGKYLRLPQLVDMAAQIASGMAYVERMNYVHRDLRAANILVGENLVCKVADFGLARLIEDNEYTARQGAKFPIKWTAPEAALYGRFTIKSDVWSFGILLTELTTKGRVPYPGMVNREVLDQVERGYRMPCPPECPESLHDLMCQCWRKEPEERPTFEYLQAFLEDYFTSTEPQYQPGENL
Method: as §1, §2

[5] = tested on: 32D-T315I CML cells; settings: mice inoculated with 32D-T315I CML cells; cited from earlier work
[6] = tested on: GBM; parameters: method as in PMID 28650650, PMID 25469771; settings: cited from earlier work
[7] = tested on: NB; parameters: method as in PMID 28650650, PMID 25469771; settings: cited from earlier work
[8] = tested on: T98G cells; assay: MTS cell viability assay, T98G; format: cell-based; settings: 72 h, 10 nM, 1 µM, 25 µM
Method: (§3) Next, the ability of SI388 to inhibit cell viability was evaluated using an MTS assay.
(§4) Cells were plated in 96 multiwells (1000 cells/well) in 100 µL of the complete medium. The following day, after 24 h of starvation, the cells were treated with DMSO, dasatinib or SI388 at different concentrations (10 nM, 1 µM, 25 µM). After 72 h, cells were treated with tetrazolium (Promega) for 1–2 h. The quantity of formazan product is directly proportional to the number of living cells in the culture. The plate is then read with a plate reader measuring the absorbance of 490 nm for the different conditions.

[9] = tested on: Src phosphorylation on Tyr416 in GBMSC83 cells; assay: Immunoblotting of pY416-Src in GBMSC83 cells; format: cell-based; settings: 1 µM, 24 h
Method: (§5) Cell extracts were prepared in RIPA (50 mM Tris-HCl pH 8.0, 150 mM NaCl, 1% NP40, 1 mM EGTA, 1 mM EDTA, 0.25% sodium deoxycholate) or IP buffer (50 mM Tris–HCl pH 7.5, 250 mM NaCl, 1% NP-40, 5 mM EDTA, 5 mM EGTA) supplemented with protease and phosphatase inhibitors (Roche Diagnostic, Mannheim, Germany). For immunoblotting, 25–30 µg of protein was separated by sodium dodecyl sulfate (SDS) polyacrylamide gel electrophoresis (PAGE), blotted onto nitrocellulose membrane, and detected with specific antibodies.

[10] = tested on: U251 cells; assay: MTS cell viability assay, U251; format: cell-based; settings: 72 h, 10 nM, 1 µM, 25 µM
Method: as §3, §4

[11] = tested on: Src phosphorylation on Tyr416 in U251 cells; assay: Immunoblotting of pY416-Src in U251 cells; format: cell-based; settings: 10 nM and 1 µM, 24 h, vs DMSO
Method: Dasatinib (Sigma Aldrich, DAS, Merck Millipore, Burlington, MA, USA), SI388 and SI83 were used at different concentration (10 nM, 1 µM or 25 µM) for 24 h upon serum deprivation. DMSO (Sigma Aldrich) was used as the control.
as §5

[12] = tested on: GBMSC83 cells; assay: Neurosphere formation, cell counting and sphere size, GBMSC83; format: cell-based; settings: 1 µM, 72 h, vs control
Method: GBMSC83 cells were seeded at the density of 1 × 10^4 cells/well in a 96-well ultralow attachment plate, and the following day they were treated with SI388 1 µM or dasatinib 1 µM. After 72 h from treatment, cells were stained with Hoechst 33,342 (Thermo Fisher Scientific) and images were acquired with Fluorescence microscopy (ZEISS) and processed with Fiji version 2.3. Hoechst positive nuclei were counted by particle detection instrument of ComDet Plugin of Fiji. The bright fields were acquired and processed by Cell Profiler version 2.1.1 to measure spheres’ diameter and reported as the fold change from the control condition.

[13] = tested on: U251 cells; assay: MTS assay after ionizing radiation, U251; format: cell-based; settings: 1 µM pre-treatment 24 h, IR 10 Gy, 48 h after IR, not statistically significant
Method: (§6) To this aim, T98G and U251 cells were pre-incubated or not with SI388 for 24 h and then irradiated (10 Gy).
as §4

[14] = molecular target: T3, Fyn (Homo sapiens, UniProt P06241); assay: Fyn enzymatic assay (ADP-Glo kinase assay); format: biochemical
T3 construct: purchased Merck-Millipore
T3 sequence (P06241 whole entry, species assumed): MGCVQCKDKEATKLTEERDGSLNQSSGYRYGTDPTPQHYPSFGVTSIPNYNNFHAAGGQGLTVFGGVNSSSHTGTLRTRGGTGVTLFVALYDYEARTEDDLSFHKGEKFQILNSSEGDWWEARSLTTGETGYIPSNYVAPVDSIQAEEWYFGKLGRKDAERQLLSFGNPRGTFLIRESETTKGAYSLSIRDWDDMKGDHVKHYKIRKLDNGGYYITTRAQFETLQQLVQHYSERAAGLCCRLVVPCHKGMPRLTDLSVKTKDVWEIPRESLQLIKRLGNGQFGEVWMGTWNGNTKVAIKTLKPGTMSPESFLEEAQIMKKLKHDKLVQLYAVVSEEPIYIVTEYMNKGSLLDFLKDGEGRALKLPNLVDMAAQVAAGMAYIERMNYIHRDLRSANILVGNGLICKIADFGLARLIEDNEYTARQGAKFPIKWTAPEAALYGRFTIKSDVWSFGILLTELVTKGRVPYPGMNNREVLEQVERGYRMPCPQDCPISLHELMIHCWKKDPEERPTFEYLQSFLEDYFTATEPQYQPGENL
Method: as §1, §2

[15] = tested on: U251 cells; assay: Clonogenic assay, U251; format: cell-based; settings: 10 nM, 1 µM, 25 µM for 24 h, colonies after 15 days
Method: (§7) To further characterize the ability of SI388 to inhibit tumor growth, we performed clonogenic assays using T98G and U251 cell lines. Cells were starved and treated for 24 h with increasing concentration (10 nM, 1 µM, and 25 µM) of SI388 or DAS. The ability of single cells to proliferate and produce colonies was evaluated after 15 days, both in control conditions (treated with DMSO) and after treatment with different Src inhibitors.
(§8) For colony formation, control and irradiated (5 Gy) cells were seeded at the concentration of 1000 cells/dish in 6-well culture plates and incubated at 37 °C, 5% CO2 for 10–15 days.
(§9) Crystal violet solution (10% (v/v) methanol and 0.5% Crystal Violet) was used to fix and stain colonies, upon 20 min incubation. The stained colonies (>50 cells) were counted under a microscope or using Image “Colonyarea” plugin. Data were expressed as the mean and SD of three independent experiments.

[16] = tested on: GBMSC83 cells; assay: Cell death analysis, Annexin V-PI cytofluorimetry after IR, GBMSC83; format: cell-based; settings: 1 µM pre-treatment 24 h, IR 10 Gy, 48 h after IR, vs control
Method: GBMSC83 cells were pretreated with 1 µM SI388 or 1 µM DAS, or DMSO as a control, for 24 h and then irradiated (10 Gy). After 48 h from IR, cytofluorimetric analysis of AnnexinV-PI staining was performed.
1 × 10^6 cells were analyzed for cell death 48 h from ionizing radiation (10 Gy) upon staining with Annexin V-APC-propidium iodide (PI) kit, according to manufacturer instructions (eBioscience™ Annexin V apoptosis detection kits, ThermoFisher Scientific, Waltham, MA, USA). Unstained samples were used as the control. CytoFLEX S (Beckman Coulter, Milan, Italy) instrument was used to quantify the double staining. Quality control was evaluated using CytoFLEX Daily QC Fluorospheres (Beckman Coulter). CytExpert version 2.2 software (Beckman Coulter) was used to analyze FCS files. Dead cells were graphed as fold change to control conditions.

[17] = tested on: T98G cells; assay: MTS assay after ionizing radiation, T98G; format: cell-based; settings: 1 µM pre-treatment 24 h, IR 10 Gy, 48 h after IR, statistically significant
Method: as §6, §4

[18] = tested on: T98G cells; assay: Clonogenic assay, T98G; format: cell-based; settings: 10 nM, 1 µM, 25 µM for 24 h, colonies after 15 days
Method: as §7, §8, §9

| SMILES | Ki [1] | Ki [3] | Ki [4] | Mean neurosphere diameter [12] | Number of cells per sphere [12] | Colony formation (cell growth and proliferation) [15] | Percentage of cell death after IR (AnnexinV-PI) [16] | Colony formation (cell growth and proliferation) [18] | other results |
| --- | --- | --- | --- | --- | --- | --- | --- | --- | --- |
| CSc1nc(Nc2cccc(Cl)c2)c2cnn(CC(Cl)c3ccccc3)c2n1 (stereo not drawn) [1a, reference compound] | 600 nM | 600 nM | 600 nM | – | – | – | – | – | Activity in xenograft mouse model of osteosarcoma [2]: active |
| ClC(Cn1ncc2c(Nc3ccccc3)ncnc21)c1ccc(Br)cc1 (stereo not drawn) [1b] | – | – | – | – | – | – | – | – | Reduction of tumor volume [5]: more than 50% |
| ClC(Cn1ncc2c(Nc3cccc(Br)c3)nc(SCCN3CCOCC3)nc21)c1ccccc1 (stereo not drawn) [1c] | 120 nM | – | – | – | – | – | – | – | Activity in in vivo model of GBM [6]: showed activity; Activity in in vivo model of NB [7]: showed activity |
| CSc1nc(Nc2ccccc2Cl)c2cnn(CC(Cl)c3ccccc3)c2n1 (stereo not drawn) [2a, 1-(2-Chloro-2-phenylethyl)-N-(2-chlorophenyl)-6-(methylthio)-1H-pyrazolo[3,4-d]pyrimidin-4-amine] | – | 450 ± 290 nM | 423 ± 93 nM | overall reduced diameter of the spheres | reduced average number of cells per sphere | impaired cell growth and proliferation in a dose-dependent manner | significantly increased the percentage of cell death | impaired cell growth and proliferation in a dose-dependent manner | Cell viability (MTS) [8]: significantly impaired cell viability; Phosphorylation of Src on Tyr416 [9]: significant reduction in phosphorylation of Src on Tyr416; Cell viability (MTS) [10]: significantly impaired cell viability; Src phosphorylation on Tyr416 (pY416-Src) [11]: reduction in Src phosphorylation on Tyr416; Sensitivity to IR (inhibition of cell viability, MTS) [13]: increases the sensitivity to IR; inhibition at 10 µM ([14]; 10 µM): 90.7%; Ki ([14]; mean of at least three experiments, 200 μM ATP): 419 ± 75 nM; inhibition at 10 µM ([3]; 10 µM): 72%; Sensitivity to IR (inhibition of cell viability, MTS) [17]: increases the sensitivity to IR; inhibition at 10 µM ([4]; 10 µM): 90% |
| Cc1nc(Nc2ncc(C(=O)Nc3c(C)cccc3Cl)s2)cc(N2CCN(CCO)CC2)n1 [dasatinib, reference compound] | – | – | – | overall reduced diameter of the spheres | reduced average number of cells per sphere | impaired cell growth and proliferation in a dose-dependent manner | significantly increased the percentage of cell death | impaired cell growth and proliferation in a dose-dependent manner | – |
